Values quoted from earlier work as cited in patent US20260263442A1, “METHOD FOR TREATING L-DOPA-INDUCED DYSKINESIA USING BEFIRADOL” (Neurolixis, Inc., priority 2023, published 2026).

Tests used:
[1] = tested on: striatal 5-HT1A receptors; details: striatum of rat, cat, macaque and human; cited from earlier work
[2] = tested on: L-DOPA-induced dyskinesia in Parkinson's patients; details: human, in vivo; cited from earlier work
[3] = tested on: L-DOPA-induced dyskinesia in Parkinson's patients; details: cited from earlier work; for Efficacy to alleviate LID, clinically tested / Effect on motor symptoms of Parkinson's disease: human, in vivo

| Compound | Efficacy to alleviate LID, clinically tested [3] | Effect on motor symptoms of Parkinson's disease [3] | further results |
| --- | --- | --- | --- |
| Cc1ccc(CNCC2(F)CCN(C(=O)c3ccc([18F])c(Cl)c3)CC2)nc1 [^18F-NLX-112] | – | – | Labelling of 5-HT1A receptors, PET brain imaging [1]: consistently labelled striatal 5-HT1A receptors |
| NC12CC3CC(CC(C3)C1)C2 [amantadine] | – | – | Proportion of patients who are non-responders [2]: about ⅓; Side effects limiting use [2]: hallucinations, confusion, leg edema, orthostatic hypotension |
| O=C1CC2(CCCC2)CC(=O)N1CCCCN1CCN(c2ncccn2)CC1 [buspirone] | limited efficacy | – | – |
| c1cc2c(c(N3CCNCC3)c1)OCCO2 [eltoprazine] | limited efficacy | – | – |
| Fc1ccc(-c2cncc(CNC[C@H]3CCc4ccccc4O3)c2)cc1 [sarizotan] | limited efficacy | no beneficial effect or even the opposite effect | Effect on L-DOPA efficacy, phase 2b study ([3]; Parkinson's patients with troublesome L-DOPA-induced dyskinesia): two of the three tested doses significantly reduced L-DOPA efficacy; Reduction of LID, two phase 3 clinical trials ([3]; third (and lowest) dose): ineffective in reducing LID |
| O=C1[C@@H]2[C@H]3CC[C@H](C3)[C@@H]2C(=O)N1CCCCN1CCN(c2ncccn2)CC1 [tandospirone] | limited efficacy | no beneficial effect or even the opposite effect | – |
